Measured values as given in patent US6794409B2, “Use of ERβ-selective ligands for regulating fertility and compounds useful therefor” (priority 2001, dated 2004).
Where two headings read alike, the source gives them in different places.

Tests used:
[1] = tested on: hypophysectomized immature female Wistar rats; test: Effect on late folliculogenesis and ovulation in hypophysectomized rats; assay type: in vivo, rat; conditions: hypex immature Wistar rats; 0.01, 0.1 and 1 mg/day s.c. for 4 days, then PMSG and hCG; FIG. 3
Method: Intact immature female Wistar rats were hypophysectomized (hypex) on day 24 of age (day 0). The following hormone treatments were initiated six days after surgery:
(§1) (a) hypex rats treated with vehicle (control group) (ethanol/arachisoil: 1+9 [v/v]) only
(b) hypex rats treated with 0.01, 0.1 and 1 mg 17β-estradiol/day
(c) hypex rats treated with 0.01, 0.1 and 1 mg of the ERα-selective compound B
(d) hypex rats treated with 0.01, 0.1 and 1 mg of the […] compound C
Animals were subcutaneously treated once per day for 4 consecutive days with the respective compounds or vehicle (day 6, 7, 8, 9). Number of animals per group were […]. The animals were randomly assigned to the treatment and vehicle (control) group.
One day after the last injection (day 10) animals were subcutaneously injected with 20 IU prgenant mare serum gonadotropin (PMSG). Two days later, at […], 10 IU human Chorionic Gonadotropin (hCG) were injected intraperitoneally in order to induce ovulation. At day 14 animals were weighed and sacrificed by carbon dioxide asphyxiation. The oviducts and ovaries were removed:
The oviducts were flushed with a M-2 medium and the oocytes per animal were counted after enzymatic disassociation from the surrounding cumulus with M-2 medium supplemented with 0.3% hyaluironidase. For each treatment group and control group the mean number of ovulated oocytes were calculated.
The ovaries were excised and weighed. Relative ovarian weights (in milligrams), defined as relative ovarian wet weights, were calculated per 100 g body weight for each animal. For each treatment group and control group the mean relativewet weights were determined.
The one way ANOVA was applied to the data in order to compare treatment group values with the respective control group.

[2] = tested on: hERβ; conditions: cited from earlier work
[3] = tested on: intact immature female Wistar rats; test: Effect on ovulation rate after superovulation (PMSG/hCG) of immature rats; assay type: in vivo, rat
Method: Superovulation experiments were carried out in three groups of intact immature female Wistar rats on day 23 of age. Number of animals per group were 5. The animals were randomly assigned to the three groups.
Each animal received a single subcutaneous (s.c.) injection of 20 I.U. pregnant mare's serum gonadotropin (PMSG) at day 0. At the same time (day 0) as well as 24 hours and 48 hours later the animals were s.c. injected with
(a) the vehicle formulation (control group: ethanol/aracisoil: 1+9 [v/v]) (group 1) or
(b) an ERβ- selective antagonist 17-Chloro-17aα-(trifluoromethyl)-17a-homoestra-1,3,5(10)16-tetraene-3,17aβ-diol (compound E) at the dose of 1 mg/kg (group 2) and 10 mg/kg (group 3). 54 hours after the start of the experiment the animals got a single intraperitoneal (i.p.) injection of 10 I.U. human chorion gonadotropin (hCG). The animals were then killed 16 hours after the hCG injection.
The ovaries and oviducts were removed. The ovulated oocyte/cumulus mass was extracted from the oviduct by flushing the oviduct with M-2 medium and the oocytes per animal were counted after enzymatic disassociation from the surrounding cumulus with M-2 medium supplemented with 0.3% hyaluronidase.

[4] = tested on: hERβ; test: Relative binding affinity to hERβ (Kuiper et al.); set-up: species or system human; conditions: quotient of RBA hERβ / hERα
From the text: (§2) In this case, it is assumed that ERβ predominates in the rat prostates over ERα, and ERα predominates in rat uteri over ERβ.

[5] = tested on: estrogen receptor preparations from rat uteri; test: Competitive 3H-estradiol binding, rat uterus cytosol; conditions: 3H-estradiol as ligand, estradiol = 100
From the text: as §2

[6] = tested on: estrogen receptor preparations from rat prostates; test: Competitive 3H-estradiol binding, rat prostate cytosol
From the text: as §2

[7] = tested on: hypophysectomized immature female Wistar rats; test: Effect of ER-selective ligands on folliculogenesis in hypophysectomized rats; assay type: in vivo, rat; conditions: hypex immature Wistar rats
From the text: Intact immature female Wistar rats were hypophysectomized (hypex) on day 24 of age (d0). The following hormone treatments were initiated six days after surgery:
as §1
Animals were subcutaneously treated once per day for 4 consecutive days with the respective compounds or vehicle (day 6, 7, 8, 9). Number of animals per group were 5-6. The animals were randomly assigned to the treatment and vehicle (control) group.
One day after the last injection (day 10) animals were weighed and sacrificed by carbon dioxide asphyxiation. The ovaries were excised and weighed. Relative ovarian weights (in milligrams), defined as relative ovarian wet weights, were calculated per 100 g body weight for each animal. For each treatment group and control group the mean relative wet weights were determined. The one way ANOVA was applied to the data in order to compare treatment group values with the respective control group.
For histological evaluation, ovaries were placed in neutral buffered 3.7% formaldehyde solution. The ovaries were then embedded in paraffin, cut into 4 μm transverse sections, and stained with hematoxylin and eosin. Ovarian sections were then evaluated qualitatively for folliculogenesis.

C=C[C@@]12CCc3cc(O)ccc3[C@H]1CC[C@@]1(C)[C@H]2CC[C@@H]1O [compound C, 8β-Vinyl-1,3,5(10)-estratriene-3,17β-diol]
number of ovulated oocytes [1]: significantly increase the number of ovulated oocytes
ovarian wet weight [1]: significantly increase

C[C@]12CC[C@@H]3c4ccc(O)cc4CC[C@H]3[C@@H]1C[C@@H](O)[C@@H]2O [Estriol]
hERβ RBA ([2]; relative binding affinity, estradiol = 100): 21

CC12CCC3c4ccc(O)cc4CCC3C1CC=C(Cl)C2(O)C(F)(F)F (stereo not drawn) [compound E, 17-Chloro-17aα-(trifluoromethyl)-17a-homoestra-1,3,5(10)16-tetraene-3,17aβ-diol]
Ovulation rate (ova/rat) [x ± sd] ([3]; 1 mg/kg/day × 3 days s.c., group 2): 11 ± 5.6 ova/rat
Ovulation rate (ova/rat) [x ± sd] ([3]; 10 mg/kg/day × 3 days s.c., group 3): 8 ± 7.2 ova/rat
Ovulation rate (ova/rat) [x ± sd] ([3]; 10 mg/kg/day × 3 days s.c., group 3, listed as ERβ-specific antagonist): 8.0 ova/rat

C[C@]12CC[C@H]3[C@@H](CC=C4C[C@@H](O)CC[C@@]43C)[C@@H]1CC[C@@H]2O [5-Androstenediol]
ERβ/ERα [4]: 3
Rat uterus ER(RBA) [5]: 0.1
Rat prost. ER(RBA) ([6]; rat prostate cytosol, 3H-estradiol as ligand, estradiol = 100): 5
prost. ER/uterus ER ([6]; ratio of RBA rat prostate ER / rat uterus ER): 50
hERβ RBA [2]: 17

C[C@]12CC[C@@H]3c4ccc(O)cc4CC[C@H]3[C@@H]1C[C@H]1OC(=O)C[C@]12O [compound B, 3,17β-Dihydroxy-19-nor-17α-pregna-1,3,5(10)-triene-21,16α-lactone]
ovarian wet weight ([7]; 0.01, 0.1 and 1 mg/day s.c. for 4 days, FIG. 1): not able to stimulate ovarian growth
folliculogenesis, histological evaluation of ovaries ([7]; s.c. for 4 days, hematoxylin and eosin sections, FIG. 2): many small atretic follicles comparable to the vehicle control group
number of ovulated oocytes [1]: not able to significantly stimulate
ovarian wet weight [1]: not able to significantly stimulate
